According to article PMC8318231, “Rate-of-Kill (RoK) assays to triage large compound sets for Chagas disease drug discovery: Application to GSK Chagas Box” (PLoS Neglected Tropical Diseases, 2021):

Legend:
[1] = test system: T. cruzi Tulahuen trypomastigotes; test: T. cruzi trypomastigote assay (Cell Titer-Glo viability, ATP luminescence); type: cell-based, Trypanosoma cruzi; details: for Trypomastigotes pIC50 48 hours: 48 hours incubation; for Trypomastigotes pIC50 48 hours / Trypomastigotes pIC50 72 hours: pIC50 = -log10 IC50 in molar units; for Trypomastigotes pIC50 72 hours: 72 hours incubation; for 72 pIC50 (trypomastigotes, raw data of Fig 1D): 72 hours, plotted values, censored values given without sign; for 48 pIC50 / 72 pIC50: trypomastigote assay; for 48 pIC50: 48 h; for 72 pIC50: 72 h
In short: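 Compounds were tested in dose response or once at a final 5 μM against 5 × 10^4 trypomastigotes per well (DMEM, 2% FBS), collected on days 5–8 from LLC-MK2 infected cultures. ATP luminescence via CellTiter-Glo reports live parasites; DMSO defines 0% and cell-free wells 100% effect.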

[2] = test system: T. cruzi intracellular amastigotes in H9c2 cells; test: Rate-of-Kill (RoK) high-content imaging assay, amastigotes per cell (AM/CELL) and curve descriptors; type: cell-based, Trypanosoma cruzi; parameters: key to ME_24h / ME_48h / ME_72h: % reduction in parasite burden (cidal response); t50pct_MCC50 / t50pct_Cmax: unit not given here; details: for ME_24h: 24h; for ME_48h: 48h; for ME_72h: 72h; for tlag_Cmax / t50pct_Cmax / t50%_Cmax: at Cmax; for ME_24h (%): maximum effect at 24 h; for ME_24h (%) / ME_48h (%) / ME_72h (%): RoK assay; for ME_48h (%): maximum effect at 48 h; for ME_72h (%): maximum effect at 72 h; for ME 24h (maximum effect at 24 hours, intracellular amastigotes): maximum percentage of parasite burden reduction reached by any concentration
In short: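 Readouts at each time point are amastigotes per cell and host nuclei count (cytotoxicity), from DRAQ5 high-content imaging. Infection: trypomastigotes on H9c2 at MOI 8 for 18 h. Dosing was 5 μM single point or 11 points, 1/3 steps from 50 μM. Effect scaled between 4 h infected and uninfected controls.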

TcCYP51 = details: formerly reported; cited from earlier work

Structure (SMILES) | Trypomastigotes pIC50 48 hours [1] | Trypomastigotes pIC50 72 hours [1] | ME_24h ([2]; figure 5) | ME_48h ([2]; figure 5) | ME_72h ([2]; figure 5) | MCCE ([2]; RoK curve descriptor) [µM] | AM/CELL NORM ([2]; Time 4, sheet figure 4 A) | AM/CELL NORM ([2]; Time 24, sheet figure 4 A) | AM/CELL NORM ([2]; Time 48, sheet figure 4 A) | tlag_Cmax [2] [h] | t50pct_Cmax ([2]; figure 5) | tlag_Cmax ([2]; figure 5) | t50pct_MCC50 ([2]; at MCC50, figure 5) | tlag_MCC50 ([2]; at MCC50, figure 5) | MCCE ([2]; figure 5) | ME_24h (%) [2] [%] | ME_48h (%) [2] [%] | ME_72h (%) [2] [%] | ME 24h (maximum effect at 24 hours, intracellular amastigotes) [2] [%] | CYP51 pIC50 (TcCYP51) | further results
Cn1nccc1-c1cc(OC(CN)c2ccccc2)cnc1-c1ccco1.O=C(O)C(F)(F)F.O=C(O)C(F)(F)F (stereo not shown) [TCMDC-143221] | 4.4 | < 4.3 | -243.084 | -97.9255 | 30.5438 | 1.9 | 21.0268 | -310.615 | -207.349 | 24.0 | 72 | 24 | 72 | 72 | 1.852 | -243.1 | -97.9 | 30.5 | -243.084 | 7.2 | AM/CELL NORM ([2]; Time 72, sheet figure 4 A): 0.471; MCC50 ([2]; figure 5): 50 µM
CS(=O)(=O)c1ccc(CC(=O)Nc2nc(-c3ccc(Cl)s3)cs2)cc1 [TCMDC-143224] | < 4.3 | < 4.3 | -50.7576 | -167.826 | 53.6478 | 1.9 | -3.952 | -61.4068 | -205.24 | 48.0 | 72 | 48 | 72 | 48 | 1.852 | -50.8 | -167.8 | 53.7 | -50.7576 | < 4 | 72 pIC50 (trypomastigotes, raw data of Fig 1D) [1]: < 4.3; 48 pIC50 ([1]; figure 1A): < 4.3; 72 pIC50 ([1]; figure 1A): < 4.3; 72 pIC50 ([1]; figure 1B): < 4.3; MCC50 ([2]; RoK curve descriptor): 16.7 µM; AM/CELL NORM ([2]; Time 72, sheet figure 4 A): -9.589; t50%_MCC50 ([2]; at MCC50): 72.0 h; tlag_MCC50 ([2]; at MCC50): 48.0 h; MCC50 ([2]; figure 5, in µM): 16.6667
CC1CN(S(=O)(=O)c2ccc(NC(=O)c3cc(C4CC4)nc4c3cnn4C(C)C)cc2)CC(C)O1 (stereo not shown) [TCMDC-143200] | 5.3 | 4.8 | 2.192 | 1.8894 | 56.9286 | 1.9 | -14.9286 | 2.192 | -23.2452 | 4.0 | 72 | 4 | 72 | 24 | 1.852 | 2.2 | 1.9 | 56.9 | 2.192 | < 4 | MCC50 ([2]; RoK curve descriptor): 1.9 µM; AM/CELL NORM ([2]; Time 72, sheet figure 4 A): 15.376; t50%_MCC50 ([2]; at MCC50): 72.0 h; tlag_MCC50 ([2]; at MCC50): 24.0 h; MCC50 ([2]; figure 5, in µM): 1.852
Cc1cccc(N2CCCN(Cc3c[nH]c4ccccc34)CC2)n1 [TCMDC-143185] | 6.7 | – | 34.1143 | 65.81 | 87.1854 | 0.6 | – | – | – | 4.0 | 48 | 4 | 48 | 4 | 0.6173 | 34.1 | 65.8 | 87.2 | 84.3328 | < 4 | MCC50 ([2]; RoK curve descriptor): 1.9 µM; AM/CELL NORM ([2]; Time 4, figure 4 A): -11.6177; AM/CELL NORM ([2]; Time 24, figure 4 A): 35.9083; AM/CELL NORM ([2]; Time 48, figure 4 A): 66.1558; AM/CELL NORM ([2]; Time 72, figure 4 A): 81.0849; t50%_Cmax [2]: 48.0 h; t50%_MCC50 ([2]; at MCC50): 48.0 h; tlag_MCC50 ([2]; at MCC50): 4.0 h; MCC50 ([2]; figure 5, in µM): 1.852
COc1ccc(S(=O)(=O)Nc2ccccc2OC)cc1NC(=O)CCCc1c[nH]c2ccccc12 [TCMDC-143256] | 5 | 4.9 | -69.6887 | 10.9628 | 75.3535 | 1.9 | 3.221 | -34.0663 | 12.7734 | 24.0 | 72 | 24 | 72 | 24 | 1.852 | -69.7 | 11.0 | 75.4 | -34.0663 | < 4 | MCC50 ([2]; RoK curve descriptor): 5.6 µM; AM/CELL NORM ([2]; Time 72, sheet figure 4 A): 63.1728; t50%_Cmax [2]: 72.0 h; t50%_MCC50 ([2]; at MCC50): 72.0 h; tlag_MCC50 ([2]; at MCC50): 24.0 h; MCC50 ([2]; figure 5, in µM): 5.556
COc1ccc(NS(=O)(=O)c2cc(-c3cc(C)[nH]n3)ccc2C)cc1OC [TCMDC-143194] | 4.7 | 5.2 | -114.917 | -675.674 | -796.23 | 1.2 | – | – | – | 41.3 | 72 | 41.3333 | 72 | 56 | 1.237 | -114.9 | -675.7 | -796.2 | 24.095 | 4.4 | MCC50 ([2]; RoK curve descriptor): 16.7 µM; AM/CELL NORM ([2]; Time 4, figure 4 A): 17.4808; AM/CELL NORM ([2]; Time 24, figure 4 A): 13.7763; AM/CELL NORM ([2]; Time 48, figure 4 A): 30.9676; AM/CELL NORM ([2]; Time 72, figure 4 A): 53.1796; t50%_MCC50 ([2]; at MCC50): 72.0 h; tlag_MCC50 ([2]; at MCC50): 24.0 h; MCC50 ([2]; figure 5, in µM): 38.8889
COc1ccc(C(C)(C)C)cc1S(=O)(=O)n1ccnc1 [TCMDC-143275] | < 4.3 | < 4.3 | -36.0217 | -75.3113 | 19.8776 | 0.2 | 7.308 | -56.5644 | -75.3113 | 48.0 | 72 | 48 | 72 | 72 | 0.2058 | -36.0 | -75.3 | 19.9 | -36.0217 | 8.1 | 72 pIC50 (trypomastigotes, raw data of Fig 1D) [1]: < 4.3; 48 pIC50 ([1]; figure 1A): < 4.3; 72 pIC50 ([1]; figure 1A): < 4.3; 72 pIC50 ([1]; figure 1B): < 4.3; AM/CELL NORM ([2]; Time 72, sheet figure 4 A): -31.1405; MCC50 ([2]; figure 5): 50 µM
